# In US20050148598A1, “Trioxane derivatives” (priority 2001, published 2005):
# Like-named read-outs stand apart in the source and are kept apart here.
# What was measured:
# [1] = tested on: K1 strain of P. falciparum; test: 48-h [3H]-hypoxanthine incorporation antimalarial sensitivity assay, K1 strain; assay type: cell-based
# Protocol: (§1) The antimalarial activity of the new compounds was assessed using two strains of P. falciparum from Thailand: (a) the uncloned K1 strain which is known to be CQ resistant and (b) the HB3 strain which is sensitive to all antimalarials. Parasites were maintained in continuous culture using the method of Trager and Jenson (J. Parasitol., 1977, 63, 883-886). Cultures were grown in flasks containing human erythrocytes (2-5%) with parasitemia in the range of 1% to 10% suspended in RPMI 1640 medium supplemented with 25 mM HEPES and 32 mM NaHCO3, and 10% human serum (complete medium). Cultures were gassed with a mixture of 3% O2, 4% CO2 and 93% N2.
# (§2) Antimalarial activity was assessed with an adaption of the 48-h sensitivity assay of Desjardins et al. (Antimicrob. Agents. Chemother., 1979, 16, 710-718) using [^3H]-hypoxanthine incorporation as an assessment of parasite growth. Stock drug solutions were prepared in 100% dimethylsulphoxide (DMSO) and diluted to the appropriate concentration using complete medium. Assays were performed in sterile 96-well microtitre plates, each plate containing 200 μl of parasite culture (2% parasitemia, 0.5% haematocrit) with or without 10 μl drug dilutions. Each drug was tested in triplicate and parasite growth was compared to control wells (which constituted 100% parasite growth). After 24-h incubation at 37° C., 0.5 μCi hypoxanthine was added to each well. Cultures were incubated for a further 24 h before they were harvested onto filter-mats, dried for 1 h at 55° C. and counted using a Wallac 1450 Microbeta Trilux Liquid scintillation and luminescence counter. IC50 values were calculated by interpolation of the probit transformation of the log dose—response curve.
# [2] = tested on: HB3 strain of P. falciparum; test: 48-h [3H]-hypoxanthine incorporation antimalarial sensitivity assay, HB3 strain; assay type: cell-based; details: HB3 strain (sensitive) of P. falciparum in vitro
# Protocol: as §1, §2
# [3] = tested on: NCI-H460 (Lung); test: NCI 3-cell line anticancer assay, NCI-H460; assay type: cell-based; details: 1.00E−04 Molar, 48 hours, sulforhodamine B
# Protocol: (§3) The anticancer activity of these compounds of the present invention was also assessed, by NCI 3-cell line anticancer assay. In this protocol, each cell line is inoculated and preincubated on a microtiter plate. Test agents are then added at a single concentration and the culture incubated for 48 hours. End-point determinations are made with sulforhodamine B, a protein-binding dye. Results for each test agent are reported as the percentage of growth of the treated cells when compared to the untreated control cells. Compounds which reduce the growth of any one of the cells lines to 32% or less (negative numbers indicate cell kill) are passed on for evaluation in the full panel of 60 cell lines over a 5-log dose range.
# [4] = tested on: MCF7 (Breast); test: NCI 3-cell line anticancer assay, MCF7; assay type: cell-based; details: 1.00E−04 Molar, 48 hours, sulforhodamine B
# Protocol: as §3
# [5] = tested on: SF-268 (CNS); test: NCI 3-cell line anticancer assay, SF-268; assay type: cell-based; details: 1.00E−04 Molar, 48 hours, sulforhodamine B
# Protocol: as §3
# [6] = tested on: L1210 cells; details: cited from earlier work
# [7] = K1 strain (CQ resistant) of P. falciparum in vitro, read-out: IC50
# [8] = Plasmodium falciparum, K1 strain (CQ resistant) of P. falciparum in vitro, read-out: IC50
molecule,measurement,setting,value
10β-[[4-[Phenylpiperazyl)methyl]benzyl]dihydroartemisinin [Compound 13a],IC50,[1]; [7],8.2 nM
"CO[C@H]1O[C@@H]2O[C@@]3(C)CC[C@H]4[C@H](C)CC[C@@H]([C@H]1C)[C@@]24OO3 [Artemether, artemether, reference compound]",IC50,[1]; [8],6.5 nM
same,IC50,[2]; Plasmodium falciparum,9.2 nM
"CCN(CC)CCCC(C)Nc1ccnc2cc(Cl)ccc12 (stereo not shown) [Chloroquine, chloroquine, reference compound]",IC50,"[1]; Plasmodium falciparum, K1",255 nM
CC1CCC2C(C)C(OCc3ccc(CN4CCN(c5ccc([N+](=O)[O-])cc5)CC4)cc3)OC3OC4(C)CCC1C32OO4 (stereo not shown) [Compound 13b],IC50,[1]; [7],138 nM
"CC1CCC2C(C)C(OCc3ccc(CN4CCN(c5ccc(F)cc5)CC4)cc3)OC3OC4(C)CCC1C32OO4 (stereo not drawn) [Compound 13c, 10β-[[4-[(4-Fluorophenylpiperazyl)methyl]benzyl]oxy]dihydroartemisnin]",IC50,[1]; [7],6.3 nM
same,IC50,[2],2.3 nM
same,"percentage of growth of the treated cells compared to untreated control cells, NCI-H460 (Lung)",[3],12%
same,"percentage of growth of the treated cells compared to untreated control cells, MCF7 (Breast)",[4],13%
same,"percentage of growth of the treated cells compared to untreated control cells, SF-268 (CNS)",[5],27%
"CC1CCC2C(C)C(OCc3ccc(CN4CCN(c5ccc(C(F)(F)F)cc5)CC4)cc3)OC3OC4(C)CCC1C32OO4 (stereo not drawn) [Compound 13d, 10β-[[4-[(4-Trifluoromethylphenylpiperazyl)methyl]benzyl]oxy]dihydroartemisinin]",IC50,[1]; [7],12.5 nM
same,IC50,[2],8.1 nM
"C[C@@H]1CCC2[C@@H](C)[C@@H](OCc3ccc(CN4CCN(Cc5ccccc5)CC4)cc3)OC3O[C@@]4(C)CC[C@@H]1[C@]32OO4 (stereo partly drawn) [Compound 13e, 10β-[[4-[(Benzylpiperazyl)methyl]benzyl]oxy]dihydroartemisinin]",IC50,[1]; [8],3.8 nM
same,IC50,[2]; Plasmodium falciparum,1.8 nM
"CC1CCC2C(C)C(OCc3cccc(CN4CCN(c5ccccc5)CC4)c3)OC3OC4(C)CCC1C32OO4 (stereo not drawn) [Compound 13f, 10β-[[3-[(Phenylpiperazyl)methyl]benzyl]oxy]dihydroartemisinin]",IC50,[1]; [7],6.6 nM
same,IC50,[2],3.4 nM
"CC1CCC2C(C)C(OCc3cccc(CN4CCN(c5ccc([N+](=O)[O-])cc5)CC4)c3)OC3OC4(C)CCC1C32OO4 (stereo not drawn) [Compound 13g, 10β-[[3-[(4-Nitrophenylpiperazyl)methyl]benzyl]oxy]dihydroartemisinin]",IC50,[1]; [7],4.3 nM
same,IC50,[2],4.3 nM
"C[C@H]1[C@@H](OCc2cccc(CN3CCN(c4ccc(Cl)cc4)CC3)c2)O[C@@H]2O[C@@]3(C)CC[C@H]4[C@H](C)CC[C@@H]1[C@@]24OO3 [Compound 13h, 10β-[[3-[(4-Chlorophenylpiperazyl)methyl]benzyl]oxy]dihydroartemisinin]",IC50,[1]; [7],13.3 nM
same,"percentage of growth of the treated cells compared to untreated control cells, NCI-H460 (Lung)",[3],22%
same,"percentage of growth of the treated cells compared to untreated control cells, MCF7 (Breast)",[4],11%
same,"percentage of growth of the treated cells compared to untreated control cells, SF-268 (CNS)",[5],31%
"CC1CCC2C(C)C(OCc3cccc(CN4CCN(c5cccc(C(F)(F)F)c5)CC4)c3)OC3OC4(C)CCC1C32OO4 (stereo not drawn) [Compound 13i, 10β-[[3-[(3-Trifluoromethylphenylpiperazyl)methyl]benzyl]oxy]dihydroartemisinin]",IC50,[1]; [7],22.5 nM
same,"percentage of growth of the treated cells compared to untreated control cells, NCI-H460 (Lung)",[3],15%
same,"percentage of growth of the treated cells compared to untreated control cells, MCF7 (Breast)",[4],10%
same,"percentage of growth of the treated cells compared to untreated control cells, SF-268 (CNS)",[5],29%
"CC1CCC2C(C)C(OCc3cccc(CN4CCN(c5ccc(F)cc5)CC4)c3)OC3OC4(C)CCC1C32OO4 (stereo not drawn) [Compound 13j, 10β-[[3-[(4-Fluorophenylpiperazyl)methyl]benzyl]oxy]dihydroartemisinin]",IC50,[1]; [7],12.6 nM
same,IC50,[2],12.6 nM
CCNCCCCNCCCCNCCCCNCC [DEHSPM],cytotoxic effects in L1210 cells,[6],0.06 µM
CCNCCCNCCCNCCCNCC [DENSPM],cytotoxic effects in L1210 cells,[6],1.3 µM
CCNCCCNCCCCNCCCNCC [DESPM],cytotoxic effects in L1210 cells,[6],0.2 µM
